Measurements as given in PMC10053807, “Natural Lipid Extracts as an Artificial Membrane for Drug Permeability Assay: In Vitro and In Silico Characterization” (Pharmaceutics, 2023).

assay: PAMPA permeability, brain polar lipid extract (BPLE) membrane; conditions: Brain Polar lipid extract membrane, n=3

Mean logPe | SMILES
-5.38 | CC1=NNS(=O)(=O)c2c1ccc(Cl)c2Cl [PGY0072]
-5.94 | CO/N=C(\C(=O)N[C@@H]1C(=O)N2C(C(=O)O)=C(COC(N)=O)CS[C@H]12)c1ccco1 [cefuroxime]
-5.12 | CCn1cc(C(=O)O)c(=O)c2cc(F)c(N3CCNCC3)nc21 [enoxacin]
< -6.48 | NC(N)=Nc1nc(CSCCC(N)=NS(N)(=O)=O)cs1 [famotidine]
-5.64 | CN1C(C(=O)Nc2ccccn2)=C(O)c2ccccc2S1(=O)=O [piroxicam]

SMILES | Mean logPe
Cn1c(=O)c2c(ncn2C)n(C)c1=O [caffeine] | -5.53

same assay, conditions: Brain Polar lipid extract membrane, n=3; * = not detected at acceptor side, value calculated from limit of detection

Mean Pe | SMILES
4.23 10-6 cm/s | CC1=NNS(=O)(=O)c2c1ccc(Cl)c2Cl [PGY0072]
< 0,33* 10-6 cm/s | NC(N)=Nc1nc(CSCCC(N)=NS(N)(=O)=O)cs1 [famotidine]
< 0,86* 10-6 cm/s | CCOC(=O)[C@H](CCc1ccccc1)N[C@@H](C)C(=O)N1[C@H](C(=O)O)C[C@@H]2CCC[C@@H]21 [ramipril]

same assay, conditions: pig, PAMPA, pH 7.4

Papp at 4 h, 100 μM [×10⁻⁶ cm/s] | SMILES
1.14 | CO/N=C(\C(=O)N[C@@H]1C(=O)N2C(C(=O)O)=C(COC(N)=O)CS[C@H]12)c1ccco1 [cefuroxime]
7.58 | CCn1cc(C(=O)O)c(=O)c2cc(F)c(N3CCNCC3)nc21 [enoxacin]
2.35 | CN1C(C(=O)Nc2ccccn2)=C(O)c2ccccc2S1(=O)=O [piroxicam]

SMILES | Papp at 4 h, 100 μM [×10⁻⁶ cm/s]
Cn1c(=O)c2c(ncn2C)n(C)c1=O [caffeine] | 2.97

assay: PAMPA permeability, brain total lipid extract (BTLE) membrane; conditions: Brain total lipid extract membrane, n=3

Mean logPe | SMILES
-5.50 | CC1=NNS(=O)(=O)c2c1ccc(Cl)c2Cl [PGY0072]
-5.89 | CO/N=C(\C(=O)N[C@@H]1C(=O)N2C(C(=O)O)=C(COC(N)=O)CS[C@H]12)c1ccco1 [cefuroxime]
-5.36 | CCn1cc(C(=O)O)c(=O)c2cc(F)c(N3CCNCC3)nc21 [enoxacin]
< -6.47 | NC(N)=Nc1nc(CSCCC(N)=NS(N)(=O)=O)cs1 [famotidine]
-5.45 | CN1C(C(=O)Nc2ccccn2)=C(O)c2ccccc2S1(=O)=O [piroxicam]

SMILES | Mean logPe
Cn1c(=O)c2c(ncn2C)n(C)c1=O [caffeine] | -5.71

same assay, conditions: Brain total lipid extract membrane, n=3; * = not detected at acceptor side, value calculated from limit of detection

Mean Pe | SMILES
< 0,34* 10-6 cm/s | NC(N)=Nc1nc(CSCCC(N)=NS(N)(=O)=O)cs1 [famotidine]
< 0,86* 10-6 cm/s | CCOC(=O)[C@H](CCc1ccccc1)N[C@@H](C)C(=O)N1[C@H](C(=O)O)C[C@@H]2CCC[C@@H]21 [ramipril]

same assay, conditions: pig, PAMPA, pH 7.4

Papp at 4 h, 100 μM [×10⁻⁶ cm/s] | SMILES
3.23 | CC1=NNS(=O)(=O)c2c1ccc(Cl)c2Cl [PGY0072]
1.28 | CO/N=C(\C(=O)N[C@@H]1C(=O)N2C(C(=O)O)=C(COC(N)=O)CS[C@H]12)c1ccco1 [cefuroxime]
4.48 | CCn1cc(C(=O)O)c(=O)c2cc(F)c(N3CCNCC3)nc21 [enoxacin]
3.57 | CN1C(C(=O)Nc2ccccn2)=C(O)c2ccccc2S1(=O)=O [piroxicam]

SMILES | Papp at 4 h, 100 μM [×10⁻⁶ cm/s]
Cn1c(=O)c2c(ncn2C)n(C)c1=O [caffeine] | 1.96

assay: PAMPA permeability, heart polar lipid extract (HPLE) membrane; conditions: Heart Polar lipid extract membrane, n=3

Mean logPe | SMILES
-5.35 | CC1=NNS(=O)(=O)c2c1ccc(Cl)c2Cl [PGY0072]
-4.21 | Nc1c(Br)cc(Br)cc1CN[C@H]1CC[C@H](O)CC1 [ambroxol]
< -5.89 | CO/N=C(\C(=O)N[C@@H]1C(=O)N2C(C(=O)O)=C(COC(N)=O)CS[C@H]12)c1ccco1 [cefuroxime]
-5.44 | CCn1cc(C(=O)O)c(=O)c2cc(F)c(N3CCNCC3)nc21 [enoxacin]
-4.96 | COCCc1ccc(OCC(O)CNC(C)C)cc1 (stereo not shown) [metoprolol]

SMILES | Mean logPe
Cn1c(=O)c2c(ncn2C)n(C)c1=O [caffeine] | -5.39

same assay, conditions: Heart Polar lipid extract membrane, n=3; * = not detected at acceptor side, value calculated from limit of detection

Mean Pe | SMILES
< 1,28* 10-6 cm/s | CO/N=C(\C(=O)N[C@@H]1C(=O)N2C(C(=O)O)=C(COC(N)=O)CS[C@H]12)c1ccco1 [cefuroxime]
< 0,34* 10-6 cm/s | NC(N)=Nc1nc(CSCCC(N)=NS(N)(=O)=O)cs1 [famotidine]
< 0,98* 10-6 cm/s | CCOC(=O)[C@H](CCc1ccccc1)N[C@@H](C)C(=O)N1[C@H](C(=O)O)C[C@@H]2CCC[C@@H]21 [ramipril]

same assay, conditions: bovine, PAMPA, pH 7.4

Papp at 4 h, 100 μM [×10⁻⁶ cm/s] | SMILES
4.67 | CC1=NNS(=O)(=O)c2c1ccc(Cl)c2Cl [PGY0072]
61.8 | Nc1c(Br)cc(Br)cc1CN[C@H]1CC[C@H](O)CC1 [ambroxol]
3.7 | CCn1cc(C(=O)O)c(=O)c2cc(F)c(N3CCNCC3)nc21 [enoxacin]
< 0.339 | NC(N)=Nc1nc(CSCCC(N)=NS(N)(=O)=O)cs1 [famotidine]

SMILES | Papp at 4 h, 100 μM [×10⁻⁶ cm/s]
Cn1c(=O)c2c(ncn2C)n(C)c1=O [caffeine] | 4.19

assay: PAMPA permeability, heart total lipid extract (HTLE) membrane; conditions: Heart total lipid extract membrane, n=3

Mean logPe | SMILES
-5.40 | CC1=NNS(=O)(=O)c2c1ccc(Cl)c2Cl [PGY0072]
-4.40 | Nc1c(Br)cc(Br)cc1CN[C@H]1CC[C@H](O)CC1 [ambroxol]
-5.91 | CO/N=C(\C(=O)N[C@@H]1C(=O)N2C(C(=O)O)=C(COC(N)=O)CS[C@H]12)c1ccco1 [cefuroxime]
-5.04 | COCCc1ccc(OCC(O)CNC(C)C)cc1 (stereo not shown) [metoprolol]

SMILES | Mean logPe
Cn1c(=O)c2c(ncn2C)n(C)c1=O [caffeine] | -5.59

same assay, conditions: Heart total lipid extract membrane, n=3; * = not detected at acceptor side, value calculated from limit of detection

Mean Pe | SMILES
< 0,33* 10-6 cm/s | NC(N)=Nc1nc(CSCCC(N)=NS(N)(=O)=O)cs1 [famotidine]
< 0,87* 10-6 cm/s | CCOC(=O)[C@H](CCc1ccccc1)N[C@@H](C)C(=O)N1[C@H](C(=O)O)C[C@@H]2CCC[C@@H]21 [ramipril]

same assay, conditions: bovine, PAMPA, pH 7.4, Mean Pe, Heart total lipid extract membrane, n=3; * = not detected at acceptor side, value calculated from limit of detection

Papp at 4 h, 100 μM [×10⁻⁶ cm/s] | SMILES
4.26 | CC1=NNS(=O)(=O)c2c1ccc(Cl)c2Cl [PGY0072]
1.25 | CO/N=C(\C(=O)N[C@@H]1C(=O)N2C(C(=O)O)=C(COC(N)=O)CS[C@H]12)c1ccco1 [cefuroxime]
0.4 | CCn1cc(C(=O)O)c(=O)c2cc(F)c(N3CCNCC3)nc21 [enoxacin]
1.92 | CN1C(C(=O)Nc2ccccn2)=C(O)c2ccccc2S1(=O)=O [piroxicam]

SMILES | Papp at 4 h, 100 μM [×10⁻⁶ cm/s]
Cn1c(=O)c2c(ncn2C)n(C)c1=O [caffeine] | 2.62

same assay, conditions: bovine, PAMPA, pH 7.4, Mean logPe, Heart total lipid extract membrane, n=3

Papp at 4 h, 100 μM [×10⁻⁶ cm/s] | SMILES
0.589 | CCn1cc(C(=O)O)c(=O)c2cc(F)c(N3CCNCC3)nc21 [enoxacin]
< 0.324 | NC(N)=Nc1nc(CSCCC(N)=NS(N)(=O)=O)cs1 [famotidine]
2.88 | CN1C(C(=O)Nc2ccccn2)=C(O)c2ccccc2S1(=O)=O [piroxicam]

same assay, conditions: pH 7.4, 4 h, 37 °C; in words (PCA biplot, Figure 11B)

PAMPA permeability on HTLE | SMILES
low | CC1=NNS(=O)(=O)c2c1ccc(Cl)c2Cl [PGY0072]
low | CN1C(C(=O)Nc2ccccn2)=C(O)c2ccccc2S1(=O)=O [piroxicam]

SMILES | PAMPA permeability on HTLE
Cn1c(=O)c2c(ncn2C)n(C)c1=O [caffeine] | low

assay: PAMPA permeability, liver polar lipid extract (LPLE) membrane; conditions: bovine, PAMPA, pH 7.4, Mean Pe, n=3, * = not detected at acceptor side, value calculated from limit of detection

Papp at 4 h, 100 μM [×10⁻⁶ cm/s] | SMILES
12.2 | CC1=NNS(=O)(=O)c2c1ccc(Cl)c2Cl [PGY0072]
54.5 | Nc1c(Br)cc(Br)cc1CN[C@H]1CC[C@H](O)CC1 [ambroxol]
7.1 | CO/N=C(\C(=O)N[C@@H]1C(=O)N2C(C(=O)O)=C(COC(N)=O)CS[C@H]12)c1ccco1 [cefuroxime]
3.49 | CCn1cc(C(=O)O)c(=O)c2cc(F)c(N3CCNCC3)nc21 [enoxacin]
13.2 | COCCc1ccc(OCC(O)CNC(C)C)cc1 (stereo not shown) [metoprolol]
10.3 | CN1C(C(=O)Nc2ccccn2)=C(O)c2ccccc2S1(=O)=O [piroxicam]
2.23 | CCOC(=O)[C@H](CCc1ccccc1)N[C@@H](C)C(=O)N1[C@H](C(=O)O)C[C@@H]2CCC[C@@H]21 [ramipril]

SMILES | Papp at 4 h, 100 μM [×10⁻⁶ cm/s]
Cn1c(=O)c2c(ncn2C)n(C)c1=O [caffeine] | 11.3

same assay, conditions: bovine, PAMPA, pH 7.4, Mean logPe, n=3

Papp at 4 h, 100 μM [×10⁻⁶ cm/s] | SMILES
19.5 | COCCc1ccc(OCC(O)CNC(C)C)cc1 (stereo not shown) [metoprolol]

same assay, conditions: n=3

Mean logPe | SMILES
-4.91 | CC1=NNS(=O)(=O)c2c1ccc(Cl)c2Cl [PGY0072]
-4.26 | Nc1c(Br)cc(Br)cc1CN[C@H]1CC[C@H](O)CC1 [ambroxol]
-5.17 | CO/N=C(\C(=O)N[C@@H]1C(=O)N2C(C(=O)O)=C(COC(N)=O)CS[C@H]12)c1ccco1 [cefuroxime]
-5.46 | CCn1cc(C(=O)O)c(=O)c2cc(F)c(N3CCNCC3)nc21 [enoxacin]
< -6.49 | NC(N)=Nc1nc(CSCCC(N)=NS(N)(=O)=O)cs1 [famotidine]
-4.99 | CN1C(C(=O)Nc2ccccn2)=C(O)c2ccccc2S1(=O)=O [piroxicam]

SMILES | Mean logPe
Cn1c(=O)c2c(ncn2C)n(C)c1=O [caffeine] | -4.95

same assay, conditions: n=3, * = not detected at acceptor side, value calculated from limit of detection

Mean Pe | SMILES
< 0,33* 10-6 cm/s | NC(N)=Nc1nc(CSCCC(N)=NS(N)(=O)=O)cs1 [famotidine]

assay: PAMPA permeability, liver total lipid extract (LTLE) membrane; conditions: Liver total lipid extract membrane, n=3

Mean logPe | SMILES
-4.66 | CC1=NNS(=O)(=O)c2c1ccc(Cl)c2Cl [PGY0072]
-4.27 | Nc1c(Br)cc(Br)cc1CN[C@H]1CC[C@H](O)CC1 [ambroxol]
< -5.94 | CO/N=C(\C(=O)N[C@@H]1C(=O)N2C(C(=O)O)=C(COC(N)=O)CS[C@H]12)c1ccco1 [cefuroxime]
-5.37 | CCn1cc(C(=O)O)c(=O)c2cc(F)c(N3CCNCC3)nc21 [enoxacin]
-4.4 | COCCc1ccc(OCC(O)CNC(C)C)cc1 (stereo not shown) [metoprolol]
-4.79 | CN1C(C(=O)Nc2ccccn2)=C(O)c2ccccc2S1(=O)=O [piroxicam]

SMILES | Mean logPe
Cn1c(=O)c2c(ncn2C)n(C)c1=O [caffeine] | -4.7

same assay, conditions: Liver total lipid extract membrane, n=3; * = not detected at acceptor side, value calculated from limit of detection

Mean Pe | SMILES
< 1,14* 10-6 cm/s | CO/N=C(\C(=O)N[C@@H]1C(=O)N2C(C(=O)O)=C(COC(N)=O)CS[C@H]12)c1ccco1 [cefuroxime]
< 0,33* 10-6 cm/s | NC(N)=Nc1nc(CSCCC(N)=NS(N)(=O)=O)cs1 [famotidine]

same assay, conditions: bovine, PAMPA, pH 7.4

Papp at 4 h, 100 μM [×10⁻⁶ cm/s] | SMILES
22.2 | CC1=NNS(=O)(=O)c2c1ccc(Cl)c2Cl [PGY0072]
54 | Nc1c(Br)cc(Br)cc1CN[C@H]1CC[C@H](O)CC1 [ambroxol]
4.25 | CCn1cc(C(=O)O)c(=O)c2cc(F)c(N3CCNCC3)nc21 [enoxacin]
< 0.331 | NC(N)=Nc1nc(CSCCC(N)=NS(N)(=O)=O)cs1 [famotidine]
40.1 | COCCc1ccc(OCC(O)CNC(C)C)cc1 (stereo not shown) [metoprolol]
16.3 | CN1C(C(=O)Nc2ccccn2)=C(O)c2ccccc2S1(=O)=O [piroxicam]

SMILES | Papp at 4 h, 100 μM [×10⁻⁶ cm/s]
Cn1c(=O)c2c(ncn2C)n(C)c1=O [caffeine] | 20.3
